Columns and labels:
[1] = system: human prostate cancer cells (PC3); test: MTT dye reduction viability test, PC3; assay type: cell-based; conditions: for IC50 / viability at 10 µM / viability at 20 µM / viability at 40 µM / viability at 60 µM / viability at 80 µM / viability at 100 µM: Homo sapiens; for IC50: 72 h exposure, MTT, mean ± SD, read-out: Cytotoxic activity IC50, PC3; for viability at 10 µM: PC3, 10 µM; for viability at 10 µM / viability at 20 µM / viability at 40 µM / viability at 60 µM / viability at 80 µM / viability at 100 µM: representative MTT result (Table S1 A); for viability at 20 µM: PC3, 20 µM; for viability at 40 µM: PC3, 40 µM; for viability at 60 µM: PC3, 60 µM; for viability at 80 µM: PC3, 80 µM; for viability at 100 µM: PC3, 100 µM, read-out: Cells viability
Method: (§1) We have chosen two types of cell culture lines: human prostate cancer cells (PC3) and normal human immortal keratinocyte cells (HaCaT) (Table 1).
(§2) Human prostate cancer cells (PC3) and human immortal keratinocyte cell line from adult human skin (HaCaT) were obtained from American Type Culture Collection (Teddington, UK) and cultured according to its instructions RPMI 1640 (L0490) medium or DMEM (L0102) medium, respectively, in a 95% air and 5% CO2 humidified incubator at 37 °C. Both media (Biowest) were supplemented with 10% fetal bovine serum (FBS), 100 U/mL penicillin and 100 μg/mL streptomycin. 10 mM stock solutions of tested compounds in DMSO were prepared.
(§3) To assess the cells growth inhibition, the MTT dye reduction test was preformed based on the method described by Präbst et al.. Both PC3 and HaCaT cells (1 × 10^3/well) were seeded into 96-well plates and incubated for 24 h to attach to the bottom of the well in appropriate medium (200 μL) and treated with tested compounds (0–100 μM). The medium with compounds was removed after 72 h and MTT (0.5 mg/mL) in fresh growth medium without serum was added to each well. The plates were incubated in dark for 4 h at 37 °C. Then, the solution in each well was removed and refilled with 100 μL DMSO: isopropanol (1:1) to dissolve formazon crystals. The optical density was measured with an UVM 340 (ASYS Hitech GmbH, Austria) microplate reader at 570 nm. Replicates of three wells for each dosage, including vehicle control, were analyzed for each experiment. The experiments were conducted in triplicate. The results are expressed as IC50 values. The value of IC50 was estimated using CompuSyn version 1.0.

[2] = MTT dye reduction viability test, HaCaT; assay type: cell-based, human; conditions: human; for IC50 at 72 h / viability at 72 h, 10 µM / viability at 72 h, 20 µM / viability at 72 h, 40 µM / viability at 72 h, 60 µM / viability at 72 h, 80 µM / viability at 72 h, 100 µM: HaCaT cells (immortal keratinocytes)
Method: as §1, §2, §3

[3] = system: human immortal keratinocyte cells (HaCaT); test: MTT dye reduction viability test, HaCaT; assay type: cell-based; conditions: for IC50: 72 h exposure, MTT, mean ± SD, read-out: Cytotoxic activity IC50, HaCaT
Method: as §1, §2, §3

rat brain homogenate = test: Lipid peroxidation (MDA/TBA) induced by FeCl2 and ascorbic acid; assay type: biochemical; conditions: 10 µM compound; for MDA concentration: oxidation by 0.1% FeCl2 and 1 mM ascorbic acid, 1 h 37 °C, control 9.644 ± 1.570
Method: The antioxidant potential of the new flavone derivatives was assessed based on the analysis of malondialdehyde concentration formed as a product of lipid oxidation stimulated by iron (II) ions.
After preparation, the brain was placed on an ice plate and washed with cold 0.9% NaCl. 10% (m/v) brain solution was obtained by homogenization in cold 10 mM TRIS-HCl buffer, pH = 7.5. The homogenate was centrifuged (2000 rpm, 10 min, 4 °C) to obtain supernatant 1 (S1).
100 µM stock solutions of test compounds in DMSO were prepared. The test compound solution was added to a […] S1 homogenate to a final concentration of 10 µM.
The oxidation reaction was induced by adding to the samples with or without the test compounds freshly prepared solutions: 0.1% FeCl2 (0.2 mL) and 1 mM ascorbic acid (0.4 mL). After incubation for 1 h at 37 °C, the reaction was stopped by adding 8.1% sodium dodecyl sulfate (SDS) solution. In order to determine the concentration of MDA, the acetic acid/HCl buffer at pH = 3.4 and 120 μL of 0.8% thiobarbituric acid (TBA) solution at pH = 6 were added to the samples. The samples were incubated for 1 h at 100 °C. After incubation, the samples were cooled on ice and centrifuged for 10 min at 4000 RPM. The absorbance was measured at a wavelength of 532 nm. Blank content: 0.5 mL of acetate buffer + 0.5 mL of TBA solution.
Calculation of malondialdehyde (MDA) concentration (Equation (1)):(1) MDA concentration=∆ A532 nm × 1.56 ×10^−6 [nmol MDA/h/g tissue]

[4] = 72 h exposure, MTT, mean ± SD, read-out: Cytotoxic activity IC50, HaCaT
[5] = HaCaT, 10 µM, 72 h, representative MTT result (Table S1 B)
[6] = HaCaT, 20 µM, 72 h, representative MTT result (Table S1 B)
[7] = HaCaT, 40 µM, 72 h, representative MTT result (Table S1 B)
[8] = HaCaT, 60 µM, 72 h, representative MTT result (Table S1 B)
[9] = HaCaT, 80 µM, 72 h, representative MTT result (Table S1 B)
[10] = HaCaT, 100 µM, 72 h, representative MTT result (Table S1 B), read-out: Cells viability

In the case of `CCC=CCC=CCC=CCCCCCCCC(=O)Oc1ccc2c(c1)C(=O)CC(c1ccccc1)O2` (stereo not shown) [6-Linolenic-Flavanone, 6-hydroxy-flavanone linolenic ester], the IC50 [1] is reported as 51.4 ± 2.8 µM, the viability at 10 µM ([1]; 72 h) is reported as 92.5% and the viability at 20 µM ([1]; 72 h) is reported as 85.9%. For the same compound, the viability at 40 µM ([1]; 72 h) was 79.5%, the viability at 60 µM ([1]; 72 h) was 48% and the viability at 80 µM ([1]; 72 h) was 35.8%. It also gave a viability at 100 µM ([1]; 72 h) of 31.5%, an IC50 at 72 h [2, 4] of 80 ± 4.75 µM and a viability at 72 h, 10 µM [2, 5] of 95.8%. For the same compound, the viability at 72 h, 20 µM [2, 6] was 75.2%, the viability at 72 h, 40 µM [2, 7] was 53.3% and the viability at 72 h, 60 µM [2, 8] was 38.1%. The viability at 72 h, 80 µM [2, 9] was 25.8%, the viability at 72 h, 100 µM [2, 10] was 23.8% and the IC50 [3] was 44.6 ± 5.89 µM.

`CCCCCCCCC=CCCCCCCCC(=O)Oc1ccc2c(c1)C(=O)CC(c1ccccc1)O2` (stereo not shown) [6-Oleic-Flavanone, 6-hydroxy-flavanone oleic ester] showed an IC50 [1] of 38.1 ± 3.24 µM, a viability at 10 µM ([1]; 72 h) of 100% and a viability at 20 µM ([1]; 72 h) of 70.9%. The viability at 40 µM ([1]; 72 h) was 41.4%, the viability at 60 µM ([1]; 72 h) was 19.3% and the viability at 80 µM ([1]; 72 h) was 13.3%. The viability at 100 µM ([1]; 72 h) was 6.81%, the IC50 at 72 h [2, 4] was 53.3 ± 6.87 µM and the viability at 72 h, 10 µM [2, 5] was 97.8%. It also gave a viability at 72 h, 20 µM [2, 6] of 70%, a viability at 72 h, 40 µM [2, 7] of 75.7% and a viability at 72 h, 60 µM [2, 8] of 26.4%. For the same compound, the viability at 72 h, 80 µM [2, 9] was 26.5%, the viability at 72 h, 100 µM [2, 10] was 26.5% and the IC50 [3] was 53.3 ± 6.87 µM. It also gave an MDA concentration (rat brain homogenate) of 8.326 ± 0.490 mM × 10^−3 and a melting point of 46.2 to 47.1 °C.

Compound `CCCCCCCCCCCCCCCCCC(=O)Oc1ccc2c(c1)C(=O)CC(c1ccccc1)O2` (stereo not shown) [6-Stearic-Flavanone, 6-hydroxy-flavanone stearic ester] has an IC50 [1] of over 100 µM, a viability at 10 µM ([1]; 72 h) of 96.5% and a viability at 20 µM ([1]; 72 h) of 106%. The viability at 40 µM ([1]; 72 h) was 99.6%, the viability at 60 µM ([1]; 72 h) was 93.9% and the viability at 80 µM ([1]; 72 h) was 93.6%. The viability at 100 µM ([1]; 72 h) was 93.7%, the “cytotoxic potential in PC3 cells (in words)” value ([1]; PC3, 0–100 μM, 72 h) was “no cytotoxic potential” and the IC50 at 72 h [2, 4] was 40.6 ± 4.21 µM. It also gave a viability at 72 h, 10 µM [2, 5] of 95.4%, a viability at 72 h, 20 µM [2, 6] of 82.5% and a viability at 72 h, 40 µM [2, 7] of 54.7%. It also gave a viability at 72 h, 60 µM [2, 8] of 47.8%, a viability at 72 h, 80 µM [2, 9] of 32.5% and a viability at 72 h, 100 µM [2, 10] of 11.7%. For the same compound, the IC50 [3] was 40.6 ± 4.21 µM and the MDA concentration (rat brain homogenate) was 7.875 ± 0.343 mM × 10^−3.

For `O=c1cc(-c2ccccc2)oc2cc(O)ccc12` [7-Hydroxy-Flavone, 7-hydroxy-flavone, reference compound], the IC50 [1] was over 100 µM, the viability at 10 µM ([1]; 72 h) was 123% and the viability at 20 µM ([1]; 72 h) was 117%. The viability at 40 µM ([1]; 72 h) was 111%, the viability at 60 µM ([1]; 72 h) was 95.4% and the viability at 80 µM ([1]; 72 h) was 65%. For the same compound, the viability at 100 µM ([1]; 72 h) was 62.7%, the “reduction of PC3 cells viability compared to control cells” value ([1]; PC3, 72 h, concentration not given) was 38% and the IC50 [2, 4] was over 100 µM. It also gave a viability at 10 µM ([2]; HaCaT, 10 µM, 72 h, representative MTT result (Table S1 B), read-out: Cells viability) of 93.8%, a viability at 20 µM ([2]; HaCaT, 20 µM, 72 h, representative MTT result (Table S1 B), read-out: Cells viability) of 65.8% and a viability at 40 µM ([2]; HaCaT, 40 µM, 72 h, representative MTT result (Table S1 B), read-out: Cells viability) of 69.7%. The viability at 60 µM ([2]; HaCaT, 60 µM, 72 h, representative MTT result (Table S1 B), read-out: Cells viability) was 96.2%, the viability at 80 µM ([2]; HaCaT, 80 µM, 72 h, representative MTT result (Table S1 B), read-out: Cells viability) was 97.2% and the viability at 100 µM [2, 10] was 92.4%. For the same compound, the “cytotoxic activity towards HaCaT cells (in words)” value ([3]; HaCaT, 0–100 μM, 72 h) was “did not exhibit cytotoxic activity”, the MDA concentration (rat brain homogenate) was 7.702 ± 1.080 mM × 10^−3 and the “reduction of the level of MDA compared to the control sample” value (rat brain homogenate; rat brain homogenate) was 20.14%.

Reference: article PMC8777613, “Effect of Hydroxyl Groups Esterification with Fatty Acids on the Cytotoxicity and Antioxidant Activity of Flavones” (Molecules, 2022)
